The values below come from patent publication EP1263429B1, “ANTIVIRAL THERAPY” (Universiteit Utrecht, priority 2000, dated 2001).

Format in all cases: cell-based
Assay [1] has as its system HIV-1Ba-L. Nature of the assay: HIV-1 replication in acutely infected monocyte-derived macrophages (MDM), p24-core antigen ELISA. On the procedure:
PBMC are isolated from heparinized blood from HIV-1-, HIV-2-, and hepatitis B-seronegative donors and obtained on Ficoll-Hypaque density gradients. Cells are washed twice and monocytes are purified by countercurrent centrifugal elutriation. Cells are >98% monocytes by criteria of cell morphology on May-Grünwald-Giemsa-stained cytosmears and by nonspecific esterase staining using alpha-naphtylacetate (Sigma Chemical Co., St. Louis, MO) as substrate. Monocytes are cultured in suspension at a concentration of 2 x 10^6 cells/ml in Teflon flasks (Nalgene, Rochester, NY) in Iscove's modified Dulbeco's medium (IMDM) with 10% heat-inactivated human AB serum negative for anti-HIV antibodies, […], and […] (Sigma) for 7 days.
HIV-1 strain Ba-L is grown to high titer in MDM. The 50% tissue culture infectious dose (TCID50) of the virus stock is determined by endpoint dilution with serial fourfold dilutions in a 96-well microtiter plate on MDM. […] The TCID50 of the virus stock is determined by endpoint dilution with serial fourfold dilutions in a 96-well microtiter plate on PBMC.
MDM, and PBMC, were incubated with HIV at a multiplicity of infection of 0.02, and 0.006 or 0.001, respectively. […] The presence of HIV-1 in the inactivated supernatant is monitored by checking for the p24-core antigen using the enzyme-linked immunosorbent assay (ELISA) system of John Moore. […]

For assay [2], the system named is HIV-1Ba-L. Nature of the assay: HIV-1 production by chronically infected PBMC, p24-core antigen ELISA. The conditions noted are these: Fig 6B; APHS added 5 days after infection, 2 days of incubation. On the procedure: (A, B) Peripheral blood mononuclear cells (PBMC) were isolated from heparinized blood from HIV-1-, HIV-2-, and hepatitis B-seronegative donors and obtained on Ficoll-Hypaque density gradients. Cells were washed twice, stimulated with 5 µg/ml phytohemagglutinin (PHA), and cultured m RPMI-1640 medium supplemented with 5 mM Hepes, 19 mM sodium bicarbonate, 10 µg/mL gentamicin, and 10% heat-inactivated fetal calf serum (PBMC culture medium) at a concentration of 2 x 10^6 cells/ml. After 3 days of incubation stimulated PBMC were recovered from the flasks and infected for 2 hours with HIV-1Ba-L at a multiplicity of infection of 0.01. Afterwards, HIV-infected and mock-infected PBMC were washed twice to remove unbound virus. […] (B) PBMC were cultured in suspension at a concentration of 2 x 10^6 cells/ml in Teflon flasks in PBMC culture medium. […] After 2 days of incubation samples of culture supernatant were collected. p24-core antigen production was quantified using the enzyme-linked immunosorbent assay (ELISA) system of John Moore. […] (C, D) PBMC were isolated from heparinized blood from HIV-1-, HIV-2-, and hepatitis B-seronegative donors and obtained on Ficoll-Hypaque density gradients. […] After 2 days of incubation samples of culture supernatant were collected. p24-core antigen production was quantified using the enzyme-linked immunosorbent assay (ELISA) system of John Moore. […]
Background: In an ELISA, binding on a coated surface is turned into a signal by an enzyme label.

For a further assay, the system named is HIV-1. Nature of the assay: IC50 determination of an anti-viral (Table 3). The conditions noted are these: Human immunodeficiency virus 1.

pIC50: −log10 of the molar value.

By inhibition is commonly meant the share of the control response that was lost under treatment. A lower inhibition goes with little suppression. In general, pIC50 refers to −log10 of the IC50, conventionally taken in molar units. With `CCCCC#CCSc1ccccc1OC(C)=O` [APHS, o-(acetoxy-phenyl)hept-2-ynyl sulphide], the “APHS concentrations that inhibit p24 production by acutely infected MDM” value with HIV-1Ba-L [1] (96 h) was “above 3 :M”. Further, 30 µM produced 88% inhibition in the assay on HIV-1Ba-L [1] (Human immunodeficiency virus 1, Macrophage, 30 µM APHS, Fig 2, MDM, multiplicity of infection 0.02). In the assay on HIV-1Ba-L [2], the “inhibition of HIV-1 production of chronically infected PBMCs” value is on record as “does not inhibit”. For the same molecule, in the assay on HIV-1, the pIC50 was 5.00.
